Experimental data taken from ChEMBL document CHEMBL1201862, “PubChem BioAssay data set” (2004).
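Interpolation was linear, between the two tested concentrations surrounding the appropriate level; five concentrations were tested over 48 hours in 96-well plates. At the GI50, growth is halved.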 Calls of active or inactive are those of the source. Rule as the data show it: active = GI50 up to about 1.1 µM and inactive = higher.

Tests used:
Assay in all cases: NCI tumour cell line growth inhibition, 48 h
[1] = tested on: COLO 205
[2] = tested on: HCT-116
[3] = tested on: HOP-92
[4] = tested on: HT-29
[5] = tested on: K562
[6] = tested on: M14
[7] = tested on: MDA-MB-231
[8] = tested on: MDA-MB-435
[9] = tested on: MOLT-4
[10] = tested on: Malme-3M
[11] = tested on: OVCAR-3
[12] = tested on: RPMI-8226
[13] = tested on: SF-268
[14] = tested on: SK-MEL-28
[15] = tested on: SK-MEL-5
[16] = tested on: SR
[17] = tested on: SW-620
[18] = tested on: T47D
[19] = tested on: UACC-257
[20] = tested on: UO-31

Measured: GI50

CCOC(=O)C(SCCO)C(C(=O)OCC)n1cnc2c(=O)[nH]c(NC(C)=O)nc21 (stereo not given)
inactive: [1] > 100 µM | [2] > 100 µM | [3] > 100 µM | [4] > 100 µM | [5] > 100 µM | [6] > 100 µM | [7] > 100 µM | [8] > 100 µM | [9] > 100 µM | [10] > 100 µM | [11] > 100 µM | [12] > 100 µM | [13] > 100 µM | [14] > 100 µM | [15] > 100 µM | [16] 21.4 µM | [17] > 100 µM | [18] > 100 µM | [19] > 100 µM | [20] > 100 µM

NC(=O)C1CCN(Cc2c(Cl)c(Cl)c(CN3CCC(C(N)=O)CC3)c(Cl)c2Cl)CC1
inactive: [1] > 100 µM | [2] > 100 µM | [3] 67.1 µM | [4] > 100 µM | [5] > 100 µM | [6] 86.3 µM | [7] 28.8 µM | [8] > 100 µM | [9] > 100 µM | [10] 90.8 µM | [11] > 100 µM | [12] > 100 µM | [13] 44.7 µM | [14] > 100 µM | [15] > 100 µM | [16] > 100 µM | [17] > 100 µM | [18] > 100 µM | [19] > 100 µM | [20] 63.5 µM

CSc1cnc2ccccc2c1SC1CN(Cc2ccccc2)c2ccccc2C1=O (stereo not given)
inactive: [1] > 100 µM | [2] > 100 µM | [3] > 100 µM | [4] 47.9 µM | [5] > 100 µM | [6] > 100 µM | [7] > 100 µM | [8] > 100 µM | [9] > 100 µM | [10] > 100 µM | [11] > 100 µM | [12] > 100 µM | [13] 54.8 µM | [14] > 100 µM | [15] > 100 µM | [16] > 100 µM | [17] > 100 µM | [18] > 100 µM | [19] > 100 µM | [20] > 100 µM
